Laboratory results taken from ChEMBL document CHEMBL5620353, “Novel antifungal triazoles with alkynyl-methoxyl side chains: Design, synthesis, and biological activity evaluation” (Eur J Med Chem, 2023).
Converted amounts (≈) assume the structure as drawn. The source made the active and inactive calls. The rule behind the calls is not given here.

Assays:
[1] = target: Cytochrome P450 2D6 (Homo sapiens, UniProt P10635); test: Inhibition of human CYP2D6 using dextromethorphan as substrate prewarmed for 10 mins followed by NADPH addition and measured after 10 mins by LC-MS/MS analysis; type: ADME
[2] = target: Cytochrome P450 2C19 (Homo sapiens, UniProt P33261); test: Inhibition of human CYP2C19 using mephenytoin as substrate prewarmed for 10 mins followed by NADPH addition and measured after 10 mins by LC-MS/MS analysis; type: ADME
[3] = system: Saccharomyces cerevisiae; test: Antifungal activity against recombinant Saccharomyces cerevisiae Y2459 overexpressing CaErg11 CaCpr assessed as inhibition of fungal growth incubated for 48 hrs by microbroth dilution method; type: functional
[4] = system: Candida albicans; test: Antifungal activity against fluconazole-resistant Candida albicans 904 assessed as inhibition of fungal growth incubated for 48 hrs by microbroth dilution method; type: functional
[5] = system: Candida tropicalis; test: Antifungal activity against Candida tropicalis 8915 assessed as inhibition of fungal growth incubated for 48 hrs by microbroth dilution method; type: functional
[6] = system: Cryptococcus neoformans; test: Antifungal activity against Cryptococcus neoformans 32,609 assessed as reduction in fungal growth and viability at 0.5 to 1 ug/ml incubated for 48 hrs by spot assay; type: functional, organism-based; conditions: dose 0.5-1 µg/ml
[7] = system: Candida parapsilosis; test: Antifungal activity against Candida parapsilosis 22019 assessed as inhibition of fungal growth incubated for 48 hrs by microbroth dilution method; type: functional; conditions: Lodderomyces parapsilosis
[8] = system: Candida albicans; test: Antifungal activity against Candida albicans SC5314 assessed as reduction in fungal growth measured after 6 to 24 hrs by optical density based method; type: functional, organism-based; conditions: dose 0.0625-16 µg/ml, time 6-24 hrs
[9] = Cytotoxicity against HUVEC cells assessed as cell survival at 128 ug/ml incubated for 24 hrs by CCK-8 assay relative to control; type: toxicity, cell-based; conditions: human, at 128 µg/mL, read-out: Survival
[10] = system: Candida albicans; test: Inhibition of biofilm formation in Candida albicans SC5314 at 64 ug/ml incubated for 24 hrs by XTT reduction assay relative to control; type: functional
[11] = Selectivity index, ratio of IC50 for HUVEC cells to MIC for Candida glabrata 537; type: toxicity; conditions: human, HUVEC cells versus Candida glabrata 537; read-out: Selectivity Index
[12] = system: Saccharomyces cerevisiae; test: Antifungal activity against recombinant Saccharomyces cerevisiae Y2374 overexpressing CgErg11 assessed as inhibition of fungal growth incubated for 48 hrs by microbroth dilution method; type: functional
[13] = system: Nakaseomyces glabratus; test: Potency index, ratio of fluconazole MIC to test compound MIC for antifungal activity against Candida glabrata 537 assessed as inhibition of fungal growth incubated for 48 hrs by microbroth dilution method; type: functional
[14] = system: Aspergillus fumigatus; test: Antifungal activity against Aspergillus fumigatus 7544 assessed as inhibition of fungal growth incubated for 72 hrs by microbroth dilution method; type: functional
[15] = system: Candida albicans; test: Antifungal activity against Candida albicans SC5314 assessed as inhibition of fungal growth incubated for 48 hrs by microbroth dilution method; type: functional
[16] = system: Cryptococcus neoformans; test: Antifungal activity against Cryptococcus neoformans 32,609 assessed as inhibition of fungal growth incubated for 72 hrs by microbroth dilution method; type: functional
[17] = system: Candida albicans; test: Antifungal activity against Candida albicans 10231 assessed as inhibition of fungal growth incubated for 48 hrs by microbroth dilution method; type: functional
[18] = system: Candida albicans; test: Antibiofilm activity against Candida albicans SC5314 preformed biofilms at 64 ug/ml incubated for 24 hrs by XTT reduction assay relative to control; type: functional; design: scale not given: the % may be the effect or the level left; conditions: dose 64 µg/ml
[19] = system: Saccharomyces cerevisiae; test: Antifungal activity against recombinant Saccharomyces cerevisiae Y2300 overexpressing ScErg11 assessed as inhibition of fungal growth incubated for 48 hrs by microbroth dilution method; type: functional
[20] = system: Nakaseomyces glabratus; test: Antifungal activity against Candida glabrata 537 assessed as inhibition of fungal growth incubated for 48 hrs by microbroth dilution method; type: functional
[21] = system: [Candida] auris; test: Antifungal activity against fluconazole-resistant Candida auris 891 assessed as inhibition of fungal growth incubated for 48 hrs by microbroth dilution method; type: functional; conditions: Candidozyma auris
[22] = Selectivity index, ratio of IC50 for HUVEC cells to MIC for Candida albicans SC5314; type: toxicity; conditions: human, HUVEC cells versus Candida albicans SC5314; read-out: Selectivity Index
[23] = Metabolic stability in human liver microsomes assessed as intrinsic clearance at 1 uM preincubated for 10 mins followed by NADPH addition and measured upto 60 mins by LC-MS/MS analysis; type: ADME, Microsome; conditions: time < 70 min, read-out: CLH
[24] = system: [Candida] auris; test: Antifungal activity against fluconazole-resistant Candida auris 918 assessed as inhibition of fungal growth incubated for 48 hrs by microbroth dilution method; type: functional; conditions: Candidozyma auris
[25] = system: Saccharomyces cerevisiae; test: Antifungal activity against recombinant Saccharomyces cerevisiae Y2462 overexpressing ScErg11 ScNcp1 assessed as inhibition of fungal growth incubated for 48 hrs by microbroth dilution method; type: functional
[26] = system: Saccharomyces cerevisiae; test: Antifungal activity against recombinant Saccharomyces cerevisiae Y2301 overexpressing ScErg11 Y140F assessed as inhibition of fungal growth incubated for 48 hrs by microbroth dilution method; type: functional
[27] = Metabolic stability in human liver microsomes assessed as half life at 1 uM preincubated for 10 mins followed by NADPH addition and measured upto 60 mins by LC-MS/MS analysis; type: ADME, Microsome; conditions: time < 70 min
[28] = system: Pichia kudriavzevii; test: Antifungal activity against Candida krusei 4996 assessed as inhibition of fungal growth incubated for 48 hrs by microbroth dilution method; type: functional
[29] = system: Saccharomyces cerevisiae; test: Antifungal activity against recombinant Saccharomyces cerevisiae Y570 overexpressing CaCdr1 assessed as inhibition of fungal growth incubated for 48 hrs by microbroth dilution method; type: functional
[30] = system: Saccharomyces cerevisiae; test: Antifungal activity against recombinant Saccharomyces cerevisiae Y2721 overexpressing CpErg11 CpCpr assessed as inhibition of fungal growth incubated for 48 hrs by microbroth dilution method; type: functional
[31] = Cytotoxicity against HUVEC cells assessed as reduction in cell survival incubated for 24 hrs by CCK-8 assay; type: toxicity, cell-based; conditions: human
[32] = target: Cytochrome P450 3A4 (Homo sapiens, UniProt P08684); test: Inhibition of human CYP3A4 using midazolam as substrate prewarmed for 10 mins followed by NADPH addition and measured after 10 mins by LC-MS/MS analysis; type: ADME
Sequence of Cytochrome P450 3A4 (P08684 whole entry): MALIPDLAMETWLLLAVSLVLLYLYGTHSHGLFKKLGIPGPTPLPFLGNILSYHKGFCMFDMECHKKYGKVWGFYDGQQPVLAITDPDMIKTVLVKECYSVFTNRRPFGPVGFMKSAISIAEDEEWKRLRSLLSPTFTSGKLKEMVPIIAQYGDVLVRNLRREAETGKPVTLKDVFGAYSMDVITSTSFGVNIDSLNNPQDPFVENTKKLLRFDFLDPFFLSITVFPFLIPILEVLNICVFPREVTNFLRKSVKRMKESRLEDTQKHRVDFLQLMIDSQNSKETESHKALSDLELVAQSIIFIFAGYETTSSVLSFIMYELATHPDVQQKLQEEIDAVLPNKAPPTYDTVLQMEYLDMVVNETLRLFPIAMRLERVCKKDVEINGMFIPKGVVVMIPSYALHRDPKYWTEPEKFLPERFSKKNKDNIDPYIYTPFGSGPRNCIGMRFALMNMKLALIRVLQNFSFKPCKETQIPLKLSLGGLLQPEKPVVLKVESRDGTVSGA

Sequence of Cytochrome P450 2D6 (P10635 whole entry): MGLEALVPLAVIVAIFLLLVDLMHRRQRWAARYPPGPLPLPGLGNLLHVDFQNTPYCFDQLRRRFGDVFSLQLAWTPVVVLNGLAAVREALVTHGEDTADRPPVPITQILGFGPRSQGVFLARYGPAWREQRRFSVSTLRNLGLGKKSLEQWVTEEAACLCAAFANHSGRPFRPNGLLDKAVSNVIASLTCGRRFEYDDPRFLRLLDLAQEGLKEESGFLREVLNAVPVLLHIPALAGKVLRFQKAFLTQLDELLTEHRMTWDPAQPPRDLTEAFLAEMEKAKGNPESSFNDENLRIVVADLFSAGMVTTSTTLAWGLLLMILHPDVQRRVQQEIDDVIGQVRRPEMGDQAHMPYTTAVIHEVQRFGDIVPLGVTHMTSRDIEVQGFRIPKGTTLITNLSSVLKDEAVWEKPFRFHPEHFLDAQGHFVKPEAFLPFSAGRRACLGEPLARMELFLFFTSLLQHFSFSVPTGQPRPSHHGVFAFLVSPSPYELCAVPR
Sequence of Cytochrome P450 2C19 (P33261 whole entry): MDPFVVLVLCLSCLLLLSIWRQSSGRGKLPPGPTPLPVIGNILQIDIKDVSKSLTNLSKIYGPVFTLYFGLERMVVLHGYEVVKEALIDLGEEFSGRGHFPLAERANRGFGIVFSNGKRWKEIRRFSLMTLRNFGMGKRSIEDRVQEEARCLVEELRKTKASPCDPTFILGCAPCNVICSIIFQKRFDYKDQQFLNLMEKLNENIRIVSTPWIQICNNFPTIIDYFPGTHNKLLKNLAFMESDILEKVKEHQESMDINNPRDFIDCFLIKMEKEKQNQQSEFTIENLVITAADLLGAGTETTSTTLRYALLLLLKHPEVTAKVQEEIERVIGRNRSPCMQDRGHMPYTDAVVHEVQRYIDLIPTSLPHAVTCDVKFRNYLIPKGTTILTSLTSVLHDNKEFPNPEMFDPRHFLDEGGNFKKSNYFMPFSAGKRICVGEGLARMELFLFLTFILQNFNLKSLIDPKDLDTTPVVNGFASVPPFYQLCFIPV

SMILES | IC50 [1] [nM] | IC50 [2] [nM] | MIC [3] [µg/mL] | MIC [4] [µg/mL] | MIC [5] [µg/mL] | Activity [6] | MIC [7] [µg/mL] | Activity [8] | viability at 24 h, 128 ug/ml [9] [%] | inhibition at 64 µg/mL [10] [%] | selectivity ratio [11] | MIC [12] [µg/mL] | Ratio [13] | MIC [14] [µg/mL] | MIC [15] [µg/mL] | MIC [16] [µg/mL] | MIC [17] [µg/mL] | Activity [18] [%] | MIC [19] [µg/mL] | MIC [20] [µg/mL] | further results
C[C@@H](OCC#Cc1ccc(F)cc1F)[C@](O)(Cn1cncn1)c1ccc(F)cc1F | 23800 | 73 | 0.016 | 16 (≈ 38.2 µM) | 32 (≈ 76.3 µM) | Active | 0.5 (≈ 1.19 µM) | Dose-Dependent Effect | 36 | 37 | > 500 | 0.063 | >=8 | 4 (≈ 9.54 µM) | ≤ 0.125 | 0.5 (≈ 1.19 µM) | 8 (≈ 19.1 µM) | 51.39 | 0.063 | ≤ 0.125 | MIC [21]: 32 µg/mL (≈ 76.3 µM); selectivity ratio [22]: > 500; microsomal CLint at 1 µM [23]: 26.2 µL/min/mg; MIC [24]: 16 µg/mL (≈ 38.2 µM); MIC [25]: 0.063 µg/mL; MIC [26]: 0.063 µg/mL; half-life at 1 µM [27]: 50.8 min; MIC [28]: 4 µg/mL (≈ 9.54 µM); MIC [29]: 32 µg/mL; MIC [30]: 0.063 µg/mL; IC50 at 24 h [31]: 76.4 µg/mL (≈ 182 µM); IC50 [32]: 566 nM
C[C@@H](OCC#Cc1ccncc1)[C@](O)(Cn1cncn1)c1ccc(F)cc1F | 5810 | 394 | 0.016 | 32 (≈ 83.2 µM) | 32 (≈ 83.2 µM) | Active | ≤ 0.125 | Dose-Dependent Effect | 28.7 | 43.4 | > 500 | 0.063 | >=8 | 4 (≈ 10.4 µM) | ≤ 0.125 | ≤ 0.125 | 32 (≈ 83.2 µM) | 50.31 | 0.031 | ≤ 0.125 | MIC [21]: 32 µg/mL (≈ 83.2 µM); selectivity ratio [22]: > 500; microsomal CLint at 1 µM [23]: 188 µL/min/mg; MIC [24]: 16 µg/mL (≈ 41.6 µM); MIC [25]: 0.063 µg/mL; MIC [26]: 0.063 µg/mL; half-life at 1 µM [27]: 7.35 min; MIC [28]: 4 µg/mL (≈ 10.4 µM); MIC [29]: 4 µg/mL; MIC [30]: 0.063 µg/mL; IC50 at 24 h [31]: 64.9 µg/mL (≈ 169 µM); IC50 [32]: 309 nM
C[C@@H](OCC#Cc1ccc(C#N)cc1)[C@](O)(Cn1cncn1)c1ccc(F)cc1F | 27200 | 566 | 0.016 | 16 (≈ 39.2 µM) | ≤ 0.125 | Active | 1 (≈ 2.45 µM) | Dose-Dependent Effect | 34.9 | 43.9 | > 500 | 0.031 | >=8 | 1 (≈ 2.45 µM) | ≤ 0.125 | 0.5 (≈ 1.22 µM) | 8 (≈ 19.6 µM) | 55.46 | 0.031 | ≤ 0.125 | MIC [21]: 16 µg/mL (≈ 39.2 µM); selectivity ratio [22]: > 500; microsomal CLint at 1 µM [23]: 25.6 µL/min/mg; MIC [24]: 32 µg/mL (≈ 78.4 µM); MIC [25]: 0.031 µg/mL; MIC [26]: 0.063 µg/mL; half-life at 1 µM [27]: 54.5 min; MIC [28]: 8 µg/mL (≈ 19.6 µM); MIC [29]: 16 µg/mL; MIC [30]: 0.063 µg/mL; IC50 at 24 h [31]: 88.5 µg/mL (≈ 217 µM); IC50 [32]: 607 nM
